Numbers after ± are expanded uncertainties.

This data set can be described thus: xn = mol fraction of the nth substance listed. To be noted: 101 kPa, Liquid, Vibrating tube method.

`C[P+](c1ccccc1)(c1ccccc1)c1ccccc1.[Br-]` [methyltriphenylphosphonium bromide] + OCC(O)CO: the mass density stood at 1295.8 ± 1.1 kg/m3 (298.15 K, x1 = 0.25); 1292.4 ± 1.1 kg/m3 (303.15 K, x1 = 0.25); 1288.9 ± 1.1 kg/m3 (308.15 K, x1 = 0.25); 1285.3 ± 1.1 kg/m3 (313.15 K, x1 = 0.25); 1281.7 ± 1.1 kg/m3 (318.15 K, x1 = 0.25); 1278.1 ± 1.1 kg/m3 (323.15 K, x1 = 0.25).

Consider `C[P+](c1ccccc1)(c1ccccc1)c1ccccc1.[Br-]` [methyltriphenylphosphonium bromide] + OCCO, for which the mass density by setting is: (298.15 K, x1 = 0.25) 1249.1 ± 1.1 kg/m3; (303.15 K, x1 = 0.25) 1245.7 ± 1.1 kg/m3; (308.15 K, x1 = 0.25) 1242.2 ± 1.1 kg/m3; (313.15 K, x1 = 0.25) 1238.8 ± 1.1 kg/m3; (318.15 K, x1 = 0.25) 1235.4 ± 1.1 kg/m3; (323.15 K, x1 = 0.25) 1231.9 ± 1.1 kg/m3.

For the compound `CC[N+](CC)(CC)CC.[Cl-]` [tetraethylammonium chloride] + OCC(O)CO, the mass density worked out at 1124 ± 1 kg/m3 (293.15 K, x1 = 0.3333); 1121 ± 1 kg/m3 (298.15 K, x1 = 0.3333); 1118.1 ± 1 kg/m3 (303.15 K, x1 = 0.3333); 1115.1 ± 1 kg/m3 (308.15 K, x1 = 0.3333); 1112.3 ± 1 kg/m3 (313.15 K, x1 = 0.3333); 1109.4 ± 1 kg/m3 (318.15 K, x1 = 0.3333). Further, the mass density worked out at 1106.6 ± 1 kg/m3 (323.15 K, x1 = 0.3333); 1103.8 ± 1 kg/m3 (328.15 K, x1 = 0.3333); 1101 ± 1 kg/m3 (333.15 K, x1 = 0.3333); 1098.2 ± 1 kg/m3 (338.15 K, x1 = 0.3333); 1095.4 ± 1 kg/m3 (343.15 K, x1 = 0.3333).

With `CC[N+](CC)(CC)CC.[Cl-]` [tetraethylammonium chloride] + OCCO, the mass density (293.15 K, x1 = 0.3333) is listed as 1052.3 ± 1 kg/m3; the mass density (298.15 K, x1 = 0.3333) turned out to be 1049.4 ± 1 kg/m3; the mass density (303.15 K, x1 = 0.3333) stood at 1046.6 ± 1 kg/m3; the mass density (308.15 K, x1 = 0.3333) was found to be 1043.7 ± 1 kg/m3; the mass density (313.15 K, x1 = 0.3333) is 1040.9 ± 1 kg/m3; the mass density (318.15 K, x1 = 0.3333) came to 1038.1 ± 1 kg/m3. The mass density reads like this: (323.15 K, x1 = 0.3333) 1035.3 ± 1 kg/m3; (328.15 K, x1 = 0.3333) 1032.5 ± 1 kg/m3; (333.15 K, x1 = 0.3333) 1029.7 ± 1 kg/m3; (338.15 K, x1 = 0.3333) 1026.9 ± 1 kg/m3; (343.15 K, x1 = 0.3333) 1024.1 ± 1 kg/m3.

These data come from the NIST ThermoML archive (doi:10.1016/j.fluid.2018.03.018).
